Test results: US9365522B2, “Pyrazole amide derivative” (AMGEN INC., priority 2015, dated 2016)

Each molecule was assayed against T1, human RORγ-LBD (Homo sapiens, UniProt P51449) (assay: ROR gamma coactivator peptide recruitment Alphascreen assay (RORγ-LBD binding to GRIP1 coactivator peptide)). Conditions: 5 nM human RORγ-LBD, 30 nM 7-β-hydroxycholesterol, 50 nM biotinylated GRIP1 coactivator peptide, overnight incubation at room temperature; read-out: result (pIC50, RORγ coactivator peptide recruitment Alphascreen assay) (converted).
T1 construct: made in house; host or cells: E. coli (BL-21)
T1 sequence (P51449 262-518): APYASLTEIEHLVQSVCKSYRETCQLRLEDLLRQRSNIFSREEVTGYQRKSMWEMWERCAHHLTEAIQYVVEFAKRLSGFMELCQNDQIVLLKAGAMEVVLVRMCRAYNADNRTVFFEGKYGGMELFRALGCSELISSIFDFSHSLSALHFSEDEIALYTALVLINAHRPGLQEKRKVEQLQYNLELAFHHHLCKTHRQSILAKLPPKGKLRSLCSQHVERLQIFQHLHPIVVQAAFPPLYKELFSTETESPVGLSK
Assay type: biochemical
Method in brief: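 Alphascreen proximity read-out after overnight room-temperature incubation, yielding pIC50 from 1-in-2 compound series (2.5% DMSO final). Mixture: 50 nM biotin-GRIP1 peptide, 30 nM 7-β-hydroxycholesterol agonist, 5 nM recombinant 6×His:Flag human RORγ-LBD (aa 262-518), 50 mM HEPES pH 7.4.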

IC50 [nM] | SMILES
42.7 | CC1(C)CC(CN(CC(=O)c2ccccc2Br)C(=O)c2cnn([C@H]3CC[C@](C)(C(=O)O)CC3)c2C(F)(F)F)C1 [Example 589, trans-4-(4-((2-(2-bromophenyl)-2-oxoethyl)((3,3-dimethylcyclobutyl)methyl)carbamoyl)-5-(trifluoromethyl)-1H-pyrazol-1-yl)-1-methylcyclohexanecarboxylic acid]
91.2 | CC1(C)C[C@@H](CN(CC(=O)c2c(Cl)cncc2Cl)C(=O)c2cnn([C@H]3CC[C@](C)(C(=O)O)CC3)c2C(F)(F)F)O1 [Example 686, trans-4-(4-((2-(3,5-dichloro-4-pyridinyl)-2-oxoethyl)(((2S)-4,4-dimethyl-2-oxetanyl)methyl)carbamoyl)-5-(trifluoromethyl)-1H-pyrazol-1-yl)-1-methylcyclohexanecarboxylic acid]
3.47 | COc1cc(Cl)c(C(=O)CN(CC2CC(C)(C)C2)C(=O)c2cnn([C@H]3CC[C@](C)(C(=O)O)CC3)c2C(F)(F)F)c(Cl)c1 [Example 581]
13.8 | CC1(C)CC[C@@H](CN(CC(=O)c2c(Cl)cccc2Cl)C(=O)c2cnn([C@H]3CC[C@](C)(C(=O)O)CC3)c2C(F)(F)F)O1 [Example 838, trans-4-(4-((2-(2,6-dichlorophenyl)-2-oxoethyl)(((2S)-5,5-dimethyltetrahydro-2-furanyl)methyl)carbamoyl)-5-(trifluoromethyl)-1H-pyrazol-1-yl)-1-methylcyclohexanecarboxylic acid]
7.24 | CC1(C)CC[C@H](CN(CC(=O)c2c(Cl)cccc2Cl)C(=O)c2cnn([C@H]3CC[C@](C)(C(=O)O)CC3)c2C(F)(F)F)O1 [Example 839, trans-4-(4-((2-(2,6-dichlorophenyl)-2-oxoethyl)(((2S)-5,5-dimethyltetrahydro-2-furanyl)methyl)carbamoyl)-5-(trifluoromethyl)-1H-pyrazol-1-yl)-1-methylcyclohexanecarboxylic acid]
32.4 | CC1(C)C[C@H]1N(CC(=O)c1c(Cl)cncc1Cl)C(=O)c1cnn([C@H]2CC[C@](C)(C(=O)O)CC2)c1C(F)(F)F [Example 648, trans-4-(4-((2-(3,5-dichloro-4-pyridinyl)-2-oxoethyl)((1R)-2,2-dimethylcyclopropyl)carbamoyl)-5-(trifluoromethyl)-1H-pyrazol-1-yl)-1-methylcyclohexanecarboxylic acid]
11.7 | C[C@@]1(CN(CC(=O)c2c(Cl)cccc2Cl)C(=O)c2cnn([C@H]3CC[C@](C)(C(=O)O)CC3)c2C(F)(F)F)CCCO1 [Example 727, trans-4-(4-((2-(2,6-dichlorophenyl)-2-oxoethyl)(((2S)-2-methyltetrahydro-2-furanyl)methyl)carbamoyl)-5-(trifluoromethyl)-1H-pyrazol-1-yl)-1-methylcyclohexanecarboxylic acid]

More lines, now with the values behind:

SMILES | IC50 [nM]
C[C@@H]1C[C@](C)(C(=O)O)CC[C@H]1n1ncc(C(=O)N(CC(=O)c2c(Cl)cncc2Cl)CC(C)(C)C)c1C(F)(F)F (stereo in doubt) [Example 855, (1R,3R,4R)-4-(4-((2-(3,5-dichloro-4-pyridinyl)-2-oxoethyl)(2,2-dimethylpropyl)carbamoyl)-5-(trifluoromethyl)-1H-pyrazol-1-yl)-1,3-dimethylcyclohexanecarboxylic acid] | 5.75
CC(C)(C)C#CCN(CCc1c(Cl)cncc1Cl)C(=O)c1cnn([C@H]2CC[C@H](C(=O)O)CC2)c1C(F)(F)F [Example 548, trans-4-(4-((2-(3,5-dichloro-4-pyridinyl)ethyl)(4,4-dimethyl-2-pentyn-1-yl)carbamoyl)-5-(trifluoromethyl)-1H-pyrazol-1-yl)cyclohexanecarboxylic acid] | 11.7
CC1(C)CCC(N(CC(=O)c2c(Cl)cccc2Cl)C(=O)c2cnn([C@H]3CC[C@H](C(=O)O)CC3)c2C(F)(F)F)CC1 [Example 525, trans-4-(4-((2-(2,6-dichlorophenyl)-2-oxoethyl)(4,4-dimethylcyclohexyl)carbamoyl)-5-(trifluoromethyl)-1H-pyrazol-1-yl)cyclohexanecarboxylic acid] | 5.89
Cc1cc(Cl)c(C(=O)CN(CC2(F)CCCCC2)C(=O)c2cnn([C@H]3CC[C@](C)(C(=O)O)CC3)c2C(F)(F)F)c(Cl)c1 [Example 665, trans-4-(4-((2-(2,6-dichloro-4-methylphenyl)-2-oxoethyl)((1-fluorocyclohexyl)methyl)carbamoyl)-5-(trifluoromethyl)-1H-pyrazol-1-yl)-1-methylcyclohexanecarboxylic acid] | 1.38
CC1(C)C[C@H]1CN(CCc1c(Cl)cncc1Cl)C(=O)c1cnn([C@H]2CC[C@H](C(=O)O)CC2)c1C(F)(F)F [Example 554, trans-4-(4-((2-(3,5-dichloro-4-pyridinyl)ethyl)(((1R)-2,2-dimethylcyclopropyl)methyl)carbamoyl)-5-(trifluoromethyl)-1H-pyrazol-1-yl)cyclohexanecarboxylic acid] | 7.08
CC1(C)CC(CN(CC(=O)c2ccccc2Br)C(=O)c2cnn([C@H]3CC[C@@H](C(=O)O)CC3)c2C(F)(F)F)C1 [Example 585, cis-4-(4-((2-(2-bromophenyl)-2-oxoethyl)((3,3-dimethylcyclobutyl)methyl)carbamoyl)-5-(trifluoromethyl)-1H-pyrazol-1-yl)cyclohexanecarboxylic acid] | 69.2
C[C@@H]1C[C@@H](n2ncc(C(=O)N(CC(=O)c3c(Cl)cccc3Cl)CC3(C)CCC3)c2C(F)(F)F)CC[C@@H]1C(=O)O [Example 781, (1S,2R,4S)-4-(4-((2-(2,6-dichlorophenyl)-2-oxoethyl)((1-methylcyclobutyl)methyl)carbamoyl)-5-(trifluoromethyl)-1H-pyrazol-1-yl)-2-methylcyclohexanecarboxylic acid] | 1.55
C[C@]1(C(=O)O)CC[C@H](n2ncc(C(=O)N(CC(=O)c3c(Cl)cncc3Cl)CC3(F)CCCCC3)c2C(F)(F)F)CC1 [Example 666, trans-4-(4-((2-(3,5-dichloro-4-pyridinyl)-2-oxoethyl)((1-fluorocyclohexyl)methyl)carbamoyl)-5-(trifluoromethyl)-1H-pyrazol-1-yl)-1-methylcyclohexanecarboxylic acid] | 4.57
CC(C)(C)CN(CC(=O)c1c(Cl)cnc2ccccc12)C(=O)c1cnn([C@H]2CC[C@](C)(C(=O)O)CC2)c1C(F)(F)F [Example 538, trans-4-(4-((2-(3-chloro-4-quinolinyl)-2-oxoethyl)(2,2-dimethylpropyl)carbamoyl)-5-(trifluoromethyl)-1H-pyrazol-1-yl)-1-methylcyclohexanecarboxylic acid] | 112
CC(C)(C)CN(C[C@H](O)c1c(Cl)cccc1Cl)C(=O)c1cnn([C@H]2CC[C@H](C(=O)O)CC2)c1C(F)(F)F [Example 573, trans-4-(4-(((2R)-2-(2,6-dichlorophenyl)-2-hydroxyethyl)(2,2-dimethylpropyl)carbamoyl)-5-(trifluoromethyl)-1H-pyrazol-1-yl)cyclohexanecarboxylic acid] | 79.4
C[C@H]1C[C@H](n2ncc(C(=O)N(CC(=O)c3c(Cl)cncc3Cl)CC(C)(C)C(F)(F)F)c2C(F)(F)F)CC[C@H]1C(=O)O [Example 875, (1R,2S,4R)-4-(4-((2-(3,5-dichloro-4-pyridinyl)-2-oxoethyl)(3,3,3-trifluoro-2,2-dimethylpropyl)carbamoyl)-5-(trifluoromethyl)-1H-pyrazol-1-yl)-2-methylcyclohexanecarboxylic acid] | 11.7
Cc1cc(Cl)c(C(=O)CN(C(=O)c2cnn([C@H]3CC[C@](C)(C(=O)O)CC3)c2C(F)(F)F)[C@H]2C[C@@H]3[C@H](C2)C3(C)C)c(Cl)n1 [Example 714, trans-4-(4-((2-(2,4-dichloro-6-methyl-3-pyridinyl)-2-oxoethyl)((1R,3r,5S)-6,6-dimethylbicyclo[3.1.0]hex-3-yl)carbamoyl)-5-(trifluoromethyl)-1H-pyrazol-1-yl)-1-methylcyclohexanecarboxylic acid] | 3.55
CC1(C)C[C@@H]1N(CC(=O)c1c(Cl)cncc1Cl)C(=O)c1cnn([C@H]2CC[C@H](C(=O)O)CC2)c1C(F)(F)F [Example 656, trans-4-(4-((2-(3,5-dichloro-4-pyridinyl)-2-oxoethyl)((1S)-2,2-dimethylcyclopropyl)carbamoyl)-5-(trifluoromethyl)-1H-pyrazol-1-yl)cyclohexanecarboxylic acid] | 186
CC(C)CCN(CC(=O)c1c(Cl)cncc1Cl)C(=O)c1cnn([C@H]2CC[C@H](C(=O)O)[C@H](C)C2)c1C(F)(F)F [Example 803, (1S,2R,4S)-4-(4-((2-(3,5-dichloro-4-pyridinyl)-2-oxoethyl)(3-methylbutyl)carbamoyl)-5-(trifluoromethyl)-1H-pyrazol-1-yl)-2-methylcyclohexanecarboxylic acid] | 63.1
CC(C)(C)CN(C[C@H](O)c1c(Cl)cccc1Cl)C(=O)c1cnn([C@H]2CC[C@H](C(=O)O)CC2)c1C(F)(F)F [Example 524, trans-4-(4-(((2R)-2-(2,6-dichlorophenyl)-2-hydroxyethyl)(2,2-dimethylpropyl)carbamoyl)-5-(trifluoromethyl)-1H-pyrazol-1-yl)cyclohexanecarboxylic acid] | 77.6
CC(C)(C)CN(CC(=O)c1c(Cl)cnc(Cl)c1Cl)C(=O)c1cnn([C@H]2CC[C@](C)(C(=O)O)CC2)c1C(F)(F)F [Example 697, trans-4-(4-((2,2-dimethylpropyl)(2-oxo-2-(2,3,5-trichloro-4-pyridinyl)ethyl)carbamoyl)-5-(trifluoromethyl)-1H-pyrazol-1-yl)-1-methylcyclohexanecarboxylic acid] | 12.9
